Results published in PubChem BioAssay AID288 (DTP/NCI, 2004).
Several values for one entry are separate records, joined by “and”; a condition that tells them apart may be missing. Identical values can stand only once. Results filed as inconclusive are left out.

Test system: BDF1 mice, M5076 sarcoma s.c., survival/tumor T/C
Assay: NCI In Vivo Anticancer Drug Screen. Data for tumor model Sarcoma M5076 (subcutaneous) in B6D2F1 (BDF1) mice
Experimental: The antitumor activity of compounds was measured in mice bearing transplantable tumors. Survival or tumor size were measured and the results are expressed as the measurement made in the treated group (T) divided by the measurement made in the vehicle treated control group (C). The tumor model used in this assay is Sarcoma M5076 (subcutaneous) in B6D2F1 (BDF1) mice

[1] = endpoint: median survival time, dose: 50.0 mg/kg/injection, schedule: Q01DX009 (ip), vehicle: saline with Tween-80, higher = longer survival
[2] = endpoint: median survival time, dose: 100.0 mg/kg/injection, schedule: Q01DX009 (ip), vehicle: saline with Tween-80, higher = longer survival
[3] = endpoint: median survival time, dose: 200.0 mg/kg/injection, schedule: Q01DX009 (ip), vehicle: saline with Tween-80, higher = longer survival
[4] = endpoint: median tumor weight (est.), dose: 50.0 mg/kg/injection, schedule: Q01DX009 (ip), vehicle: saline with Tween-80, higher = larger tumour
[5] = endpoint: median tumor weight (est.), dose: 100.0 mg/kg/injection, schedule: Q01DX009 (ip), vehicle: saline with Tween-80, higher = larger tumour
[6] = endpoint: median tumor weight (est.), dose: 200.0 mg/kg/injection, schedule: Q01DX009 (ip), vehicle: saline with Tween-80, higher = larger tumour

For [N-]=[N+]=CC(=O)CCC(N)C(=O)O (stereo unspecified), which T/C (endpoint: median survival time, dose: 1.0 mg/kg/injection, schedule: Q04DX005 (ip), vehicle: saline, higher = longer survival) is on record?
Its T/C is 150 % of control and 159 % of control.

And the T/C (endpoint: median survival time, dose: 2.0 mg/kg/injection, schedule: Q04DX005 (ip), vehicle: saline, higher = longer survival)?
Its T/C is 166 % of control and 167 % of control.

What about the T/C (endpoint: median survival time, dose: 4.0 mg/kg/injection, schedule: Q04DX005 (ip), vehicle: saline, higher = longer survival) of the same compound?
Its T/C is 181 % of control and 183 % of control.

What about the T/C (endpoint: median survival time, dose: 8.0 mg/kg/injection, schedule: Q04DX005 (ip), vehicle: saline, higher = longer survival) of the same compound?
The T/C was 186 % of control and 188 % of control.

What about the T/C (endpoint: median survival time, dose: 16.0 mg/kg/injection, schedule: Q04DX005 (ip), vehicle: saline, higher = longer survival) of the same compound?
Its T/C is 98 % of control.

What does the source list for Nc1n[n+](-c2ccc(Cl)cc2)no1?
T/C (endpoint: median survival time, dose: 25.0 mg/kg/injection, schedule: Q04DX003 (ip), vehicle: water, higher = longer survival): 99 % of control; T/C (endpoint: median survival time, dose: 50.0 mg/kg/injection, schedule: Q04DX003 (ip), vehicle: water, higher = longer survival): 100 % of control

CC(=O)Nc1ccc(S(=O)(=O)NNC(=O)C(=O)Nc2cccc(Cl)c2)cc1 was tested. Which T/C [1] did it give?
Its T/C is 105 % of control.

What about the T/C [2] of the same compound?
Its T/C is 98 % of control.

And the T/C [3]?
The T/C was 86 % of control.

What about the T/C [4] of the same compound?
The T/C was 113 % of control.

What about the T/C [5] of the same compound?
The T/C was 108 % of control.

And the T/C [6]?
The T/C was 92 % of control.

With NC(C/[N+]([O-])=N/O)C(=O)O (stereo unspecified) as the compound, how does the T/C (endpoint: mean tumor weight, dose: 62.5 mg/kg/injection, schedule: Q02DX011 (ip), vehicle: saline, higher = larger tumour) read?
The T/C was 88 % of control.

And the T/C (endpoint: mean tumor weight, dose: 125.0 mg/kg/injection, schedule: Q02DX011 (ip), vehicle: saline, higher = larger tumour)?
The T/C was 108 % of control.

And the T/C (endpoint: mean tumor weight, dose: 250.0 mg/kg/injection, schedule: Q02DX011 (ip), vehicle: saline, higher = larger tumour)?
Its T/C is 42 % of control.

And the T/C (endpoint: median survival time, dose: 8.78 mg/kg/injection, schedule: Q01DX010 (ip), vehicle: alkali diluted with saline, higher = longer survival)?
Its T/C is 88 % of control and 90 % of control.

And the T/C (endpoint: median survival time, dose: 13.2 mg/kg/injection, schedule: Q01DX010 (ip), vehicle: alkali diluted with saline, higher = longer survival)?
Its T/C is 91 % of control and 93 % of control.

And the T/C (endpoint: median survival time, dose: 19.8 mg/kg/injection, schedule: Q01DX010 (ip), vehicle: alkali diluted with saline, higher = longer survival)?
The T/C was 118 % of control.

And the T/C (endpoint: median survival time, dose: 29.6 mg/kg/injection, schedule: Q01DX010 (ip), vehicle: alkali diluted with saline, higher = longer survival)?
Its T/C is 114 % of control and 118 % of control.

What about the T/C (endpoint: median survival time, dose: 44.4 mg/kg/injection, schedule: Q01DX010 (ip), vehicle: alkali diluted with saline, higher = longer survival) of the same compound?
Its T/C is 105 % of control and 106 % of control.

What about the T/C (endpoint: median survival time, dose: 52.7 mg/kg/injection, schedule: Q04DX005 (ip), vehicle: alkali diluted with saline, higher = longer survival) of the same compound?
Its T/C is 89 % of control and 90 % of control.

What about the T/C (endpoint: median survival time, dose: 66.7 mg/kg/injection, schedule: Q01DX010 (ip), vehicle: alkali diluted with saline, higher = longer survival) of the same compound?
Its T/C is 115 % of control and 116 % of control.

And the T/C (endpoint: median survival time, dose: 79.0 mg/kg/injection, schedule: Q04DX005 (ip), vehicle: alkali diluted with saline, higher = longer survival)?
Its T/C is 93 % of control.

And the T/C (endpoint: median survival time, dose: 119.0 mg/kg/injection, schedule: Q04DX005 (ip), vehicle: alkali diluted with saline, higher = longer survival)?
Its T/C is 123 % of control.

What about the T/C (endpoint: median survival time, dose: 267.0 mg/kg/injection, schedule: Q04DX005 (ip), vehicle: alkali diluted with saline, higher = longer survival) of the same compound?
The T/C was 106 % of control and 112 % of control.

And the T/C (endpoint: median survival time, dose: 400.0 mg/kg/injection, schedule: Q04DX005 (ip), vehicle: alkali diluted with saline, higher = longer survival)?
The T/C was 115 % of control.

And the T/C (endpoint: median tumor weight (est.), dose: 50.0 mg/kg/injection, schedule: Q02DX011 (ip), vehicle: alkali diluted with saline, higher = larger tumour)?
The T/C was 91 % of control.

What about the T/C (endpoint: median tumor weight (est.), dose: 100.0 mg/kg/injection, schedule: Q02DX011 (ip), vehicle: alkali diluted with saline, higher = larger tumour) of the same compound?
The T/C was 66 % of control.

How did the T/C [1] turn out when O=C1Nc2cnc(Cl)nc2Nc2ccccc21 was run?
Its T/C is 97 % of control.

And the T/C [2]?
The T/C was 94 % of control.

What about the T/C [3] of the same compound?
The T/C was 95 % of control.

What about the T/C [4] of the same compound?
The T/C was 90 % of control.

And the T/C [5]?
Its T/C is 75 % of control.

And the T/C [6]?
The T/C was 86 % of control.

Which T/C (endpoint: mean tumor weight, dose: 100.0 mg/kg/injection, schedule: Q02DX011 (ip), vehicle: Klucel (hydroxypropylcellulose) (HPC), higher = larger tumour) does the source give for CC(=O)[C@H]1CC[C@H]2[C@@H]3C[C@H](C)C4=CC(=O)CC[C@]4(C)[C@H]3C(=O)C[C@]12C here?
The T/C was 51 % of control.

And the T/C (endpoint: mean tumor weight, dose: 200.0 mg/kg/injection, schedule: Q02DX011 (ip), vehicle: Klucel (hydroxypropylcellulose) (HPC), higher = larger tumour)?
Its T/C is 74 % of control.

What does the source list for OCCNCCN=C1CCC(=NCCNCCO)CC1?
T/C [1]: 100 % of control; T/C [2]: 100 % of control; T/C [4]: 105 % of control; T/C [5]: 112 % of control

With Nc1nc([Se])c2ncn(C3OC(CO)C(O)C3O)c2n1 (stereo unspecified) as the compound, how does the T/C (endpoint: median survival time, dose: 4.0 mg/kg/injection, schedule: Q01DX009 (ip), vehicle: saline, higher = longer survival) read?
The T/C was 108 % of control.

And the T/C (endpoint: median survival time, dose: 8.0 mg/kg/injection, schedule: Q01DX009 (ip), vehicle: saline, higher = longer survival)?
The T/C was 118 % of control.

What about the T/C (endpoint: median survival time, dose: 8.0 mg/kg/injection, schedule: Q01DX009 (ip), vehicle: suspension in saline, higher = longer survival) of the same compound?
The T/C was 118 % of control.

What about the T/C (endpoint: median survival time, dose: 16.0 mg/kg/injection, schedule: Q01DX009 (ip), vehicle: saline, higher = longer survival) of the same compound?
The T/C was 119 % of control.

What about the T/C (endpoint: median survival time, dose: 16.0 mg/kg/injection, schedule: Q01DX009 (ip), vehicle: suspension in saline, higher = longer survival) of the same compound?
The T/C was 119 % of control.

What about the T/C (endpoint: median tumor weight (est.), dose: 4.0 mg/kg/injection, schedule: Q01DX009 (ip), vehicle: saline, higher = larger tumour) of the same compound?
The T/C was 64 % of control.

And the T/C (endpoint: median tumor weight (est.), dose: 8.0 mg/kg/injection, schedule: Q01DX009 (ip), vehicle: saline, higher = larger tumour)?
Its T/C is 33 % of control.

What about the T/C (endpoint: median tumor weight (est.), dose: 8.0 mg/kg/injection, schedule: Q01DX009 (ip), vehicle: suspension in saline, higher = larger tumour) of the same compound?
Its T/C is 24 % of control.

What about the T/C (endpoint: median tumor weight (est.), dose: 16.0 mg/kg/injection, schedule: Q01DX009 (ip), vehicle: saline, higher = larger tumour) of the same compound?
The T/C was 8 % of control.

And the T/C (endpoint: median tumor weight (est.), dose: 16.0 mg/kg/injection, schedule: Q01DX009 (ip), vehicle: suspension in saline, higher = larger tumour)?
Its T/C is 6 % of control.
